Test results taken from patent US5079257A, “Indoloquinone compounds” (priority 1986, dated 1992).
Converted amounts (≈) assume the structure as drawn. Where two headings read alike, the source gives them in different places.

Legend:
[1] = test system: R-1 cells (Rhabdomyosarcoma Cells); assay: R-1 activity (bioliquid assay), cytotoxicity; assay type: cell-based; details: for IC50: Rhabdomyosarcoma cell
Excerpt: The indoloquinones II (formula II) have been tested in respect of their cytotoxic activity against L1210 cells and R-1 cells (Rhabdomyosarcoma Cells) in a bioliquid assay at the department of oncology of the Free University of Amsterdam (Table I). […] (Table II). Eight indoloquinones (E.O. 1, E.O. 2, E.O. 4, E.O. 4A, E.O. 8, E.O. 9, E.O. 33 and E.O. 35) have been tested in a panel of five human tumour lines (TNO Rijswijk; Table III).
For the determination of the R-1 activity, Rhabdomyosarcoma cells were brought into Falcon multiwells (growth area: 9.6 cm^2) (~10^6 cells per dish) containing 3 ml of Dulbecco's medium supplemented with 10% Foeto Calf Serum (FCS). […] Thereupon the drug solution was removed and the cells were covered with fresh medium. After 48 hours the cells were trypsinized and counted on a Sysmex microcell counter (CC110).
(§1) The in vitro L1210 and R-1 activities of the indoloquinones (formula III), were also determined in the bioliquid assays as described above.

[2] = test system: L1210 cells; assay: L1210 activity (bioliquid assay), cytotoxicity; assay type: cell-based; details: for IC50: Mus musculus; for ID-50 L1210: 2880 min
Excerpt: The indoloquinones II (formula II) have been tested in respect of their cytotoxic activity against L1210 cells and R-1 cells (Rhabdomyosarcoma Cells) in a bioliquid assay at the department of oncology of the Free University of Amsterdam (Table I). In addition to this seven compounds (E.O. 1, E.O. 2, E.O. 4, E.O. 7, E.O. 9, E.O. 16 and E.O. 17) have been tested on L1210 activity in a clonogenic assay at TNO, Rijswijk. Further, the lowest active doses of the compounds E.O. 1, E.O. 2, E.O. 4 and E.O. 9 have been determined at TNO Rijswijk, according to the method described by Lamberts et al. [Oncology, 40, 301 (1983)]. (Table II). Eight indoloquinones (E.O. 1, E.O. 2, E.O. 4, E.O. 4A, E.O. 8, E.O. 9, E.O. 33 and E.O. 35) have been tested in a panel of five human tumour lines (TNO Rijswijk; Table III). From the latter group three indoloquinones (E.O. 1, E.O. 4 and E.O. 9) have been selected for a cytotoxicity study, involving five slowly growing human tumour lines (University of Freiburg; Table IV).
For this purpose, L1210 cells were grown, as suspension, in Falcon multi-wells (growth area: 9.6 cm^2) using RPMI supplemented with 15% FCS and 2-mercapto-ethanol (60 μmol) as medium. In this medium, the cells were continuously incubated with the compound to be tested at 37° C. in an atmosphere of 5% CO2 in humidified air for 48 hours. Thereupon they were counted on a Sysmex microcell counter (CC110).
as §1

[3] = Table I, bioliquid assay, read-out: ID-50 R-1
[4] = L1210, Table I, bioliquid assay, 48 hours, read-out: ID-50 L1210
[5] = read-out: ID-50 R-1, Table VIII
[6] = L1210, 48 h, read-out: ID-50 L1210, Table VIII
[7] = Table IA, para-indoloquinone diesters, read-out: ID-50 R-1
[8] = L1210, 48 h, Table IA, para-indoloquinone diesters, read-out: ID-50 L1210

Row | Compound | IC50 [1, 3] [µg/mL] | IC50 [2, 4] [µg/mL] | also measured
1 | COC1=CC(=O)c2c(c(CO)c(/C=C/COC(C)=O)n2C)C1=O [E.O. 1A, 3-Hydroxymethyl-5-methoxy-1-methyl-2-[1H-indole-4,7-dione]prop-β-en-α-yl acetate] | 3.2 | 2.8 | –
2 | COC1=CC(=O)c2c(c(COC(C)=O)c(/C=C/CO)n2C)C1=O [E.O. 1B, 3-Acetoxymethyl-5-methoxy-1-methyl-2-[1H-indole-4,7-dione]prop-β-en-α-ol] | 0.05 (≈ 0.157 µM) | 0.9 (≈ 2.82 µM) | –
3 | COC1=CC(=O)c2c(c(COC(N)=O)c(/C=C/COC(N)=O)n2C)C1=O [E.O. 3, 3-Carbamoyloxymethyl-5-methoxy-1-methyl-2-[1H-indole-4,7-dione]prop-β-en-α-yl carbamate] | > 10 | 8 (≈ 22 µM) | –
4 | CC(=O)OC/C=C/c1c(COC(C)=O)c2c(n1C)C(=O)C=C(NCCO)C2=O [E.O. 5, 3-Acetoxymethyl-5-(2-hydroxyethyl-1-amino)-1-methyl-2-[1H-indole-4,7-dione]prop-β-en-αyl acetate] | > 10 | > 10 | IC50 ([1]; Table VI, read-out: ID-50 R-1): > 10 µg/mL; ID-50 L1210 ([2]; Table VI): > 10 µg/mL
5 | COCc1c2c(n(C)c1/C=C/COC(=O)NCCCl)C(=O)C=C(OC)C2=O [E.O. 10, 5-Methoxy-3-methoxymethyl-1-methyl-2-[1H-indole-4,7-dione]prop-β-en-α-yl N-[2-chloro-1-ethyl]carbamate] | > 10 | > 10 | ID-50 R-1 ([1]; Table VII): > 10 µg/mL; ID-50 L1210 ([2]; Table VII): > 10 µg/mL
6 | COC1=CC(=O)c2c(c(COC(=O)NCCCl)c(/C=C/COC(=O)NCCCl)n2C)C1=O [E.O. 13, 3-(N-chloroethylcarbamoyloxymethyl)-5-methoxy-1-methyl-2-[1H-indole-4,74,7-dione]prop-β-en-α-yl N-chloroethyl carbamate] | 1.1 (≈ 2.25 µM) | 10 (≈ 20.5 µM) | –
7 | Cn1c(/C=C/CO)c(CO)c2c1C(=O)C=C(Nc1ccccc1)C2=O [E.O. 15, 3-Hydroxymethyl-5-phenylamino-1-methyl-2-[1H-indole-4,7-dione]prop-β-en-α-ol] | – | 0.7 (≈ 2.07 µM) | –
8 | COC1=C(C)C(=O)c2c(c(CO)c(/C=C/CO)n2C)C1=O [E.O. 18, 1,6-Dimethyl-5-hydroxymethyl-5-methoxy-2-[1H-indole-4,7-dione]prop-β-en-α-ol] | 2.2 (≈ 7.55 µM) | 2.4 (≈ 8.24 µM) | –
9 | CC1=C(N2CC2)C(=O)c2c(CO)c(/C=C/CO)n(C)c2C1=O [E.O. 19, 5-Aziridino-1,6-dimethyl-3-hydroxymethyl-2-[1H-indole-4,7-dione]prop-β-en-α-ol] | – | – | IC50 ([1]; read-out: ID-50 R-1, Table I, bioliquid assay): 0.1 µg/mL (≈ 0.331 µM); IC50 [1, 5]: 0.12 µg/mL (≈ 0.397 µM); IC50 [2, 6]: 2 µg/mL (≈ 6.62 µM)
10 | COC(=O)/C=C/c1c(C(=O)OC)c2c(n1C)C(=O)C(C)=C(OC)C2=O [E.O. 32, Methyl 1,6-dimethyl-5-methoxy-3-methoxycarbonyl-2-[1H-indole-4,7-dione]acrylate] | – | – | IC50 [1, 7]: > 10 µg/mL; IC50 [2, 8]: 3.5 µg/mL (≈ 10.1 µM)
11 | COC1=CC(=O)c2c(c(COC(=O)c3ccccc3)c(/C=C/COC(=O)c3ccccc3)n2C)C1=O [E.O. 36, 3-Benzoxymethyl-5-methoxy-1-methyl-2-[1H-indole-4,7-dione]prop-β-en-α-yl benzoate] | 2.6 (≈ 5.36 µM) | 0.7 (≈ 1.44 µM) | –
12 | CCCCNC(=O)OC/C=C/c1c(COC(=O)NCCCC)c2c(n1C)C(=O)C=C(OC)C2=O [E.O. 37, 3-[N-butylcarbamoyloxymethyl]-5-methoxy-1-methyl-2-[1H-indole-4,7-dione]prop-β-en-α-yl N-butylcarbamate] | 6.5 (≈ 13.7 µM) | > 10 | ID-50 L1210 ([2]; Table VII): > 10 µg/mL
13 | COC1=CC(=O)c2c(c(COC(=O)Nc3ccccc3)c(/C=C/COC(=O)Nc3ccccc3)n2C)C1=O [E.O. 38, 5-Methoxy-1-methyl-3-[N-phenylcarbamoyloxymethyl]-2-[1H-indole-4,7-dione]prop-β-en-α-yl N-phenylcarbamate] | 8.5 (≈ 16.5 µM) | > 10 | ID-50 L1210 ([2]; Table VII): > 10 µg/mL
14 | COC1=CC(=O)c2c(c(CNc3ccccc3)c(/C=C/COC(C)=O)n2C)C1=O [E.O. 39, 5-Methoxy-1-methyl-3-(N-phenylaminomethyl)-2-[1H-indole-4,7-dione]prop-β-en-α-yl acetate] | 1 | 10 | R-1 activity [1]: rather high R-1 activity
15 | COC1=CC(=O)c2c(c(C)c(/C=C/COC(C)=O)n2C)C1=O [E.O. 41, 5-Methoxy-1,3-dimethyl-2-[1H-indole-4,7-dione]prop-β-en-α-yl acetate] | > 10 | > 10 | IC50 ([1]; Table VII, read-out: ID-50 R-1): > 10 µg/mL; ID-50 L1210 ([2]; Table VII): > 10 µg/mL
16 | CC(=O)OC/C=C/c1c(COC(C)=O)c2c(n1C)C(=O)C=C(NCCN(C)C)C2=O [E.O. 47, 3-Acetoxymethyl-5-[2-(N,N-dimethylamino)ethyl-1-amino]-1-methyl-2-[1H-indole-4,7-dione]prop-β-en-α-yl acetate] | 4.4 | > 10 | R-1 activity [1]: rather high activities; ID-50 L1210 ([2]; Table VI): > 10 µg/mL
17 | CC(=O)OCc1c2c(n(C)c1/C=C/CO)C(=O)C=C(NCCN(C)C)C2=O [E.O. 48, 3-Acetoxymethyl-5-[2-(N,N-dimethylamino)ethyl-1-amino]-1-methyl-2-[1H-indole-4,7-dione]prop-β-en-α-ol] | > 10 | > 10 | IC50 ([1]; Table VI, read-out: ID-50 R-1): > 10 µg/mL; ID-50 L1210 ([2]; Table VI): > 10 µg/mL
18 | Cn1c(/C=C/CO)c(CO)c2c1C(=O)C=C(NCCc1ccccn1)C2=O [E.O. 51, 3-Hydroxymethyl-1-methyl-5-[2-pyridylethyl-1-amino]-2-[1H-indole-4,7-dione]prop-β-en-α-ol] | 4.5 (≈ 12.2 µM) | > 10 | ID-50 L1210 ([2]; Table VI): > 10 µg/mL
19 | CC(=O)OC/C=C/c1c(COC(C)=O)c2c(n1C)C(=O)C=C(NCCc1ccccn1)C2=O [E.O. 52, 3-Acetoxymethyl-1-methyl-5-[2-pyridylethyl-1-amino]-2-[1H-indole-4,7-dione]prop-β-en-α-yl acetate] | 3.3 | > 10 | R-1 activity [1]: rather high activities; ID-50 L1210 ([2]; Table VI): > 10 µg/mL
20 | CC(=O)OC/C=C/c1c(COC(C)=O)c2c(n1C)C(=O)C=C(N1CC1C)C2=O (stereo not drawn) [E.O. 53, 3-Acetoxymethyl-1-methyl-5-propyleneamino-2-[1H-indole-4,7-dione]prop-β-en-α-yl acetate] | – | – | IC50 [1, 5]: 1.4 µg/mL; IC50 [2, 6]: 3.4 µg/mL
21 | CCNC1=CC(=O)c2c(c(CO)c(/C=C/CO)n2C)C1=O [E.O. 56, 5-Ethylamino-3-hydroxymethyl-1-methyl-2-[1H-indole-4,7-dione]prop-β-en-α-ol] | > 10 | 5.1 (≈ 17.6 µM) | IC50 ([1]; Table VI, read-out: ID-50 R-1): > 10 µg/mL
22 | CCNC1=CC(=O)c2c(c(C(=O)OC)c(/C=C/C(=O)OC)n2C)C1=O [E.O. 57, Methyl 5-ethylamino-3-methoxycarbonyl-1-methyl-2-[1H-indole-4,7-dione]acrylate] | – | – | IC50 [1, 7]: 3.2 µg/mL (≈ 9.24 µM); IC50 [2, 8]: 1.4 µg/mL (≈ 4.04 µM)
23 | CCNC1=CC(=O)c2c(c(COC(C)=O)c(/C=C/COC(C)=O)n2C)C1=O [E.O. 58, 3-Acetoxymethyl-5-ethylamino-1-methyl-2-[1H-indole-4,7-dione]prop-β-en-α-yl acetate] | > 10 | > 10 | IC50 ([1]; Table VI, read-out: ID-50 R-1): > 10 µg/mL; ID-50 L1210 ([2]; Table VI): > 10 µg/mL
24 | CCNC1=CC(=O)c2c(c(COC(C)=O)c(/C=C/CO)n2C)C1=O [E.O. 59, 3-Acetoxymethyl-5-ethylamino-1-methyl-2-[1H-indole-4,7-dione]prop-β-en-α-ol] | > 10 | > 10 | –
